Measured values published in PMC5703966, “Systemic clearance and brain distribution of carbazole-based cyanine compounds as Alzheimer’s disease drug candidates” (Scientific Reports, 2017).

What was measured:
[1] = in vitro; details: human, Caco-2
[2] = target: T1, OATP1B1 (Homo sapiens, UniProt Q9Y6L6); assay: OATP substrate identification, uptake in stably transfected HEK293 cells
T1 sequence (Q9Y6L6 1-691): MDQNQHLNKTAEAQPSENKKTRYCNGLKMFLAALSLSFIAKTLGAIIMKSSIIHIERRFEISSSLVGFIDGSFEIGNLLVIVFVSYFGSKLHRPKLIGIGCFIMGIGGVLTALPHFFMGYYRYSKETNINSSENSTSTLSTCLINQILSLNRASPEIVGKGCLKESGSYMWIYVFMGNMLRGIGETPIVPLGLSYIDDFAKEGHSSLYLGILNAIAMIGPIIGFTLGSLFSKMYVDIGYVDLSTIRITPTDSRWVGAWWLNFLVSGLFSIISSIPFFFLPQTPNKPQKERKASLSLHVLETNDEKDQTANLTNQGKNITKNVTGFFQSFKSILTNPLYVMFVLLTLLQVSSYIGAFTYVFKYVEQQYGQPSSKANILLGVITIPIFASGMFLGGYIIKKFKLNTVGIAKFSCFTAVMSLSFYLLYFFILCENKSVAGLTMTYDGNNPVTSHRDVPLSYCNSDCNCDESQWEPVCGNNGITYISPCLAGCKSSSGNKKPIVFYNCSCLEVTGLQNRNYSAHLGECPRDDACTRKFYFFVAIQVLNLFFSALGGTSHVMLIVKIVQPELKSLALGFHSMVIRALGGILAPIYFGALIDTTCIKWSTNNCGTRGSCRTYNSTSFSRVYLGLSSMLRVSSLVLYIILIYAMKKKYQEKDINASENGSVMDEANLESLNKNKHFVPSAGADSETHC
Method: (§1) Daily changes of medium were performed and on the second day after seeding using medium containing 10 mM sodium butyrate.
(§2) Stably transfected HEK cells and control vector-transfected HEK293 cells were first washed (3 × 1 mL) with prewarmed HBSS (pH 7.4) and then were incubated with 250 μL of HBSS containing compounds at concentrations of 1 and 10 μM. Cells were incubated for 10 mins at 37 °C for all experiments. After incubation, uptake was stopped by aspirating the incubation solution and washing each well 3 times with 200 μL of ice-old HBSS. The cells were lysed in 150 μL of 1 M NaOH for 30 mins, and then neutralized by adding equal volumes of 1 M HCl.
(§3) The following equations (3 and 4) were used to calculate the uptake rates (U, pmol/mg/min) and the OATP1B1, OATP1B3, OATP2B1 and OATP1A2 uptake ratio (UR):3 U=Clysate/P×T 4 UR=UOATP1B1/1B3/2B1/1A2/UHEK293−MOCK where C lysate is the compound concentration in cell lysates. P is the protein concentration in cell lysates. T is the incubation time. U OATP1B1/1B3/2B1/1A2 is the uptake rate obtained in HEK293 stably transfected OATP1B1, OATP1B3, OATP2B1 or OATP1A2 transportation. U HEK293-MOCK is the uptake rate obtained in control vector-transfected HEK293 transportation.

[3] = target: T2, OATP1B3 (Homo sapiens, UniProt Q9NPD5); assay: as above
T2 sequence (Q9NPD5 1-702): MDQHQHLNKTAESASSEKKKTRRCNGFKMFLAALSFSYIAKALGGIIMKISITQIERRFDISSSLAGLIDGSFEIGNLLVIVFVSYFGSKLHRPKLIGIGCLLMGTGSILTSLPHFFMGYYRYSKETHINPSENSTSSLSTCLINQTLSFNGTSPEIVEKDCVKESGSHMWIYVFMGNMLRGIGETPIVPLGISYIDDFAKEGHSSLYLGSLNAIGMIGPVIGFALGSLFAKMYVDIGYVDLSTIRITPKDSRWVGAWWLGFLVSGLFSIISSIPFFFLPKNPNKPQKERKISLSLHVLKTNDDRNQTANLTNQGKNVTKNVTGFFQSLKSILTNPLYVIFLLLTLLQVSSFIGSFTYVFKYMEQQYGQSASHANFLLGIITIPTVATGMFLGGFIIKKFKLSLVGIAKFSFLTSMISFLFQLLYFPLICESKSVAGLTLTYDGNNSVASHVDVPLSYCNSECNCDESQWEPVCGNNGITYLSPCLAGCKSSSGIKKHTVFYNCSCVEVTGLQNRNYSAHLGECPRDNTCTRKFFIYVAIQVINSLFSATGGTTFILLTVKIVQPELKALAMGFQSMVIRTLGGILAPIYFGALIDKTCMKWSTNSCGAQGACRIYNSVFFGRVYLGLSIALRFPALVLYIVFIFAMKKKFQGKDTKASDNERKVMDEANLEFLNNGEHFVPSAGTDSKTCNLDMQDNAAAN
Method: as §1, §2, §3

[4] = Brain distribution by brain slices experiment; assay type: in vitro ADME, mouse; details: mouse brain slices, positive controls
Method: The unbound volume of distribution in the brain (V u, brain) was determined in fresh brain slices using the protocol published by Friden et al.[25].

[5] = target: T3, OATP1A2 (Homo sapiens, UniProt P46721); assay: OATP substrate identification, uptake in stably transfected HEK293 cells
T3 sequence (P46721 1-670): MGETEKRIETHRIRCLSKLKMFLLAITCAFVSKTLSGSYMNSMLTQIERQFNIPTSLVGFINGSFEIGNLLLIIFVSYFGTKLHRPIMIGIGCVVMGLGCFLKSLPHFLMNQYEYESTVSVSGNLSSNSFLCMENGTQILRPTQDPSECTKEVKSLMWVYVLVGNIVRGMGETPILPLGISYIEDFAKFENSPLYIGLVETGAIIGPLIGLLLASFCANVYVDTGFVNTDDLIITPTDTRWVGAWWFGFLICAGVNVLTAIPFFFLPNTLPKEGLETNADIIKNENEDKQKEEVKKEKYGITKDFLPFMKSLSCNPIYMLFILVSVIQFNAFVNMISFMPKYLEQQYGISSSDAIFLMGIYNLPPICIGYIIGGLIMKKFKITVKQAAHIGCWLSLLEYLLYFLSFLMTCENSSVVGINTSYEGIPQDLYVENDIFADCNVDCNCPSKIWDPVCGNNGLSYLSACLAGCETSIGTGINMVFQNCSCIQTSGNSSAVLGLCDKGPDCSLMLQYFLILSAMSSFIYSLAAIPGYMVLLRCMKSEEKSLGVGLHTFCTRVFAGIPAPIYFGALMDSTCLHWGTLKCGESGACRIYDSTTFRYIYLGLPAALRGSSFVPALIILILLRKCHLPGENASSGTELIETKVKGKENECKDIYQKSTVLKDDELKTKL
Method: as §1, §2, §3

[6] = target: T4, OATP2B1 (Homo sapiens, UniProt O94956); assay: as above; details: positive control
T4 sequence (O94956 1-709): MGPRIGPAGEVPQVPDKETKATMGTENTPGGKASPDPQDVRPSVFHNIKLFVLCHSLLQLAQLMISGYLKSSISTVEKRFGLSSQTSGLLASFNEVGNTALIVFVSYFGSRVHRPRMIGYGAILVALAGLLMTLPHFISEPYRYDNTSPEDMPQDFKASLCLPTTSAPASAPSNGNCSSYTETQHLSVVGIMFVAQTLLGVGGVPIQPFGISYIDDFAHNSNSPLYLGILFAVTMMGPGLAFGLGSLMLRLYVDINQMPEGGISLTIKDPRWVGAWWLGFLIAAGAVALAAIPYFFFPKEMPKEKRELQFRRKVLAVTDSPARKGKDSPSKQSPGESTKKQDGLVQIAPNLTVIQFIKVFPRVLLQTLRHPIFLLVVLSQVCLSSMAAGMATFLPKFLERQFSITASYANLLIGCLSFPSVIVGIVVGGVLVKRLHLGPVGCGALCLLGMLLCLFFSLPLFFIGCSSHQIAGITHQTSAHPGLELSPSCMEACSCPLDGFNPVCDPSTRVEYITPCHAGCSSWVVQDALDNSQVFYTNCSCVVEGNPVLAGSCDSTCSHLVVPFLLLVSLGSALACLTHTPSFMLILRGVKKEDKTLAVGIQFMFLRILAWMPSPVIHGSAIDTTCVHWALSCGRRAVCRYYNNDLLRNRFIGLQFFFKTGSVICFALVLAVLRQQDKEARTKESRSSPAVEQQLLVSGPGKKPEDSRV
Method: as §1, §2, §3

[7] = Blood cell partitioning (blood to plasma ratio); assay type: in vitro ADME; details: fresh whole blood, 37 °C
Method: The blood to plasma ratio was determined using the method shown in supplemental information (Supplemental Methods). […] The blood cell partitioning was calculated as follows. […] Plasma, liver microsomes and hepatocyte binding by RED device The stability of the compounds in plasma, liver microsomes and hepatocyte were studied to ensure the reliability of the binding data. Hepatocyte was deactivated by leaving them on a bench for 2 days and going through a freeze thaw cycle thereafter.

[8] = Plasma binding by RED device; assay type: in vitro ADME, mouse; details: mouse plasma, RED device, 4 h, 37 °C; further: tested at 0.4 µM
Method: (§4) Nonspecific binding in plasma (f u, plasma), microsomes (f u, mic) and hepatocyte (f u, hep) were determined using the method seen in supplemental information (Supplemental Methods). […]
(§5) All validation compounds were incubated at 37 °C over 4 h, and in triplicate. For […]
(§6) plasma stability, 10 mM DMSO solutions of SLM and SLOH were diluted to 40 µM (10% DMSO). Plasma […]
(§7) shaking water bath (60 oscillations/min approx.). The assay was started by addition of 6 µL aliquots to […]
(§8) the plasma (final DMSO incubation concentration 0.1%). […]
(§9) MS/MS. Natural logarithm of peak area ratios (compound peak area normalized by IS peak area) were plotted against time and half-life calculated. […]
(§10) placed into the sample chamber (indicated by the red ring) with 400 µL of PBS into the adjacent chamber.
(§11) The plate was sealed with a self-adhesive lid and incubated at 37 °C on an orbital shaker (1.5 g approx.) for 4 h. Aliquots (100 µL) were removed from each side of the insert, and analyzed after protein precipitation using 4 folds acetonitrile (ACN) containing berberine chloride as internal standard (IS) by LC-MS/MS (Analytical me thod seen below). The experimental procedure outlined in the Thermo Scientific RED device systems brochure was adopted in the present study . […]

[9] = Plasma binding by RED device; assay type: in vitro ADME, human; details: human plasma, RED device, 4 h, 37 °C; further: tested at 0.4 µM
Method: as §4, §5, §6, §7, §8, §9, §10, §11

[10] = system: Caco-2 cells; assay: In vitro permeability study using Caco-2 cell; details: Caco-2, 1 μM input, positive controls
[11] = Hepatocyte stability; assay type: in vitro ADME; details: ICR/CD-1, hepatocytes (cryopreserved, suspension); mouse, 1 μM input, positive controls; read-out: Hepatocytes Clint, app
[12] = target: T5, CYP1A2 (Homo sapiens, UniProt P05177); details: hepatocytes
T5 sequence (P05177 1-516): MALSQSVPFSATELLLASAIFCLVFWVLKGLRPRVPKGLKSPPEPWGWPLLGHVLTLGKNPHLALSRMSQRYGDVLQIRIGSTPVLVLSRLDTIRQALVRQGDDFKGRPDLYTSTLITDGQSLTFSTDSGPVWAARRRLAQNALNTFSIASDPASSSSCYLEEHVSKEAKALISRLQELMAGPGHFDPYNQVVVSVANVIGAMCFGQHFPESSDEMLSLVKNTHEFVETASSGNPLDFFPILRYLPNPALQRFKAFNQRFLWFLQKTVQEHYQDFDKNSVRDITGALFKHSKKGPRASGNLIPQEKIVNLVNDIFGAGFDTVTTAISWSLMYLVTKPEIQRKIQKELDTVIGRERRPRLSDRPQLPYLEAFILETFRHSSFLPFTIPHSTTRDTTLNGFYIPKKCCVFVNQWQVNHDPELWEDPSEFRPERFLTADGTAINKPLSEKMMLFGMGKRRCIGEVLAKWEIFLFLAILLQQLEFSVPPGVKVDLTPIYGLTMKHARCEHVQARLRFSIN
Method: The samples were centrifuged at approximately 1,900 g for 10 mins before LC-MS/MS analysis.
The C YP3A4 and CYP1A2 activities in human hepatocytes were assayed by testosterone 6β-

SMILES: COC(=O)c1ccccc1-c1c2ccc(=N)cc-2oc2cc(N)ccc12 [Rhodamine 123]
- Papp A→B at 1 μM [1]: 0.73 ± 0.02 ×10⁻⁶ cm/s

SMILES: C[C@]12CC[C@@H]3c4ccc(O)cc4CC[C@H]3[C@@H]1CC[C@@H]2O[C@@H]1O[C@H](C(=O)O)[C@@H](O)[C@H](O)[C@H]1O [β-Estradiol 17-β-D-glucuronide, reference compound]
- uptake ratio of OATP1B1 [2]: 45 ± 7.6
- uptake ratio of OATP1B3 [3]: 10 ± 3.0

SMILES: CC[C@@]1(O)C(=O)OCc2c1cc1n(c2=O)Cc2cc3c(CN(C)C)c(O)ccc3nc2-1 [Topotecan]
- Papp A→B at 2 μM [1]: 1.2 ± 0.09 ×10⁻⁶ cm/s
- efflux ratio at 2 μM [1]: 4.6 ± 1.7

SMILES: NCC1(CC(=O)O)CCCCC1 [Gabapentin, reference compound]
- Unbound brain distribution (Vu, brain) [4]: 2.20 ± 1.00 mL/g brain

SMILES: C[C@]12CC[C@@H]3c4ccc(OS(=O)(=O)O)cc4CC[C@H]3[C@@H]1CCC2=O [estrone-3-sulfate, reference compound]
- uptake ratio of OATP1A2 [5]: 18 ± 3.7
- uptake ratio of OATP2B1 [6]: 13 ± 2.9

SMILES: NS(=O)(=O)c1cc(C2(O)NC(=O)c3ccccc32)ccc1Cl (stereo not drawn) [Chlorthalidone, reference compound]
- blood plasma ratio at 1 h, 1 μM ([7]; human): 11 ± 3.2
- blood plasma ratio at 1 h, 1 μM ([7]; mouse): 6.2 ± 0.2

SMILES: CC(C)NCC(O)COc1cccc2ccccc12 (stereo not drawn) [Propranolol, reference compound]
- f u,plasma % [8]: 0.220 ± 0.0200%
- f u,plasma % [9]: 6.50 ± 0.480%
- Papp A→B at 1 μM [1]: 17 ± 1.3 ×10⁻⁶ cm/s

SMILES: C[C@H]1O[C@@H](O[C@H]2[C@@H](O)C[C@H](O[C@H]3[C@@H](O)C[C@H](O[C@H]4CC[C@@]5(C)[C@H](CC[C@@H]6[C@@H]5C[C@@H](O)[C@]5(C)[C@@H](C7=CC(=O)OC7)CC[C@]65O)C4)O[C@@H]3C)O[C@@H]2C)C[C@H](O)[C@@H]1O [Digoxin]
- Papp A→B at 2 μM [1]: 3.5 ± 0.34 ×10⁻⁶ cm/s
- efflux ratio at 2 μM [1]: 5 ± 1.5

SMILES: O=C([O-])c1ccccc1-c1c2ccc(=O)cc-2oc2cc([O-])ccc12.[Na+].[Na+] [Sodium fluorescein]
- Papp (A-B) [10]: 1.40 ± 0.260 (cm/s) × 10-6

SMILES: CCOc1ccc(NC(C)=O)cc1 [Phenacetin, reference compound]
- hepatocyte CLint at 1 μM [11]: 33 ± 8 µL/min/1e6 cells
- phenacetin O-deethylation (CYP1A2 activity) [12]: 24.3 ± 3.25 pmol/min/106 cells
